From US20190062305A1, “PYRIDYL OR PYRAZINYL COMPOUNDS CARRYING A METHYL-BOUND ALPHA-AMINO ACID AMIDE GROUP” (ABBVIE DEUTSCHLAND GMBH & CO. KG, priority 2015, published 2019) come the findings set out here.

A short description of series [1]: Metabolic stability in human liver microsomes, unbound intrinsic clearance (Cl int/fu mic). As to conditions: human, liver microsomes, pH 7.4, human liver microsomes 0.25 mg/mL, 0.5 μM compound, NADPH, read-out: Cl int, mic unb. (h) [l/h/kg] (unbound intrinsic clearance, human). Format: in vitro ADME. On the procedure:
Samples of the tested compounds (0.5 μM) were preincubated together with human liver microsomes (0.25 mg of microsomal protein/mL) in 0.05 M potassium phosphate buffer of pH 7.4 in microtiter plates at 37° C. for 5 minutes. The reaction was started by adding NADPH (1.0 mM). After 0, 5, 10, 15, 20 and 30 minutes, an aliquot was removed, the reaction was cooled and stopped by adding twice the amount of quench solution consisting of acetonitrile/methanol 1:1, and containing 0.2 μM carbutamide as internal standard. The samples were frozen until analyzed. The remaining concentration of undegraded test substance was determined by liquid chromatography-tandem mass spectrometry (LC-MS/MS). The half-life (t1/2) was determined from the gradient of the ratio of the signal of (test substance/internal standard)/unit time plot, allowing the calculation of the half-life of the test substance, assuming first order kinetics, from the decrease in the concentration of the compound with time. The microsomal clearance ([…]) was calculated as follows: […]=((ln(2)/t 1⁄2)/Microsomal Protein Concentration (mg/ml))*1000, leading to the unit of uL/min/mg. The scaled clearance (mClin_scaled) was calculated as […]_scaled=m CLint*(Microsomal Yield (mg/kg BW))/1000000*60, leading to the units L/h/kg. The Microsomal Yield is defined by the specifics of the used microsomes. Calculations were modified from references: Di, The Society for Biomolecular Screening, 2003, 453-462; Obach, D M D, 1999 vol 27. N 11, 1350-1359. A suspension of 0.25 mg/ml microsomal protein spiked with 0.5 μM of test compound was pipetted on one side of a HTDialysis device (HTDialysis LLC, 37 Ledgewood Drive, Gales Fery CT 06335) separated by a membrane with a MWcut off 12-14 K. 50 mM K-Phosphate buffer (pH 7.4) was added on the other side of the well. After incubation at 37° C. for 4 h while shaking at 150 rpm, aliquots of both sides were taken, quenched with MeOH/ACN 1:1 and 0.2 μM of internal standard and frozen until analysis by LCMSMS Cl int unbound=Cl int/fu mic
For orientation: Microsomes from liver hold many membrane-bound enzymes, among them those of drug oxidation.

Series [2] deals with T1, 5-HT2C receptor (Homo sapiens, UniProt P28335).
T1 construct: host or cells: U2OS
The series is described as follows: Human 5-HT2C functional assay (beta-arrestin2 recruitment, U2OS_HTR2C_β-Arrestin cells). Format: cell-based. Particulars: for EC50: beta-arrestin2 recruitment, U2OS_HTR2C_β-Arrestin cells, 1.5 h incubation, read-out: EC50 5-HT2C (potency in functional assay); for Emax: relative efficacy vs response to 10 μM 5-HT or maximal 5-HT effect (100%). In a few lines:
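U2OS cells expressing HTR2C with β-galactosidase complementation, switched to 1% serum medium 24 h post-plating, were treated next day with compound for 1.5 h; chemiluminescence read. Response expressed as % of 10 µM 5-HT or maximal 5-HT effect; EC50 from 4-parameter variable-slope fit.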
For orientation: Arrestin recruitment assays detect the binding of arrestin to an activated receptor.

T1 sequence (P28335 33-458): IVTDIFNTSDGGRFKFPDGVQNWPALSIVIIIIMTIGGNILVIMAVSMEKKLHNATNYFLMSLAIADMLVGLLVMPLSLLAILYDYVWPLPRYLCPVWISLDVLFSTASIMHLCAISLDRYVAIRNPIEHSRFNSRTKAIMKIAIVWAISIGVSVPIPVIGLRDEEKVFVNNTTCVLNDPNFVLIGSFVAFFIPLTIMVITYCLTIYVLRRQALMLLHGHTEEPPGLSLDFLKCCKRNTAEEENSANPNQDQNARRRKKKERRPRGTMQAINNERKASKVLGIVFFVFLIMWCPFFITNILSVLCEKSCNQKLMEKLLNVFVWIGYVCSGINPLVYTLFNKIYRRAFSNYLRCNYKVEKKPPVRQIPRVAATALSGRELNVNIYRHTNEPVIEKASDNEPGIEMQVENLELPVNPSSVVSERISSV
T1 sequence (P32121 whole entry partner): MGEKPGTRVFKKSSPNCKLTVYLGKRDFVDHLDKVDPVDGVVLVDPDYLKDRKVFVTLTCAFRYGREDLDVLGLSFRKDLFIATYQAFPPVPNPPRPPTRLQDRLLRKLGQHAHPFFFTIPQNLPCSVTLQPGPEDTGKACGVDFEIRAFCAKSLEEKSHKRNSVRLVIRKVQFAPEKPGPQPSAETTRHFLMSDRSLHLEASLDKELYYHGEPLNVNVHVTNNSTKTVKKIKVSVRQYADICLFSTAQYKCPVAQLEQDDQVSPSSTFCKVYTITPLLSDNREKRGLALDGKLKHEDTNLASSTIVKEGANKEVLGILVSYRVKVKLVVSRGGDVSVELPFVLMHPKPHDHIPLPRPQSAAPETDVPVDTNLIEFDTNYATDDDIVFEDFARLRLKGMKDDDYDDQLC

As usually defined, the EC50 is the concentration giving half of the maximal effect. Usually Emax stands for the greatest response seen or fitted, relative to the assay's reference. Turning to `COc1nc(O[C@H]2CC[C@H](F)CC2)c(F)cc1CNC(=O)[C@@H]1CCCN1C` [Example 28, (2S)—N-[[5-Fluoro-6-(trans-4-fluorocyclohexoxy)-2-methoxy-3-pyridyl]methyl]-1-methyl-pyrrolidine-2-carboxamide; Fumaric Acid], the CLint scaled at 0.5 μM in series [1] was less than 5 L/h/kg. In series [2], the EC50 was less than 20 nM and the Emax is greater than 70%.

With `COc1nc(O[C@H]2CC[C@@H](F)CC2)c(F)cc1CNC(=O)[C@@H]1CCCN1C` [Example 29, (2S)—N-[[5-Fluoro-6-(cis-4-fluorocyclohexoxy)-2-methoxy-3-pyridyl]methyl]-1-methyl-pyrrolidine-2-carboxamide; Fumaric Acid], in series [1], the CLint scaled at 0.5 μM is less than 5 L/h/kg. In addition, in series [2], the concentration for a half-maximal effect (EC50) was less than 20 nM and the Emax is greater than 70%.

As for `COc1nc(O[C@H]2CC[C@@H](F)CC2)c(F)cc1CNC(=O)[C@@H]1CCCN1` [Example 30, (2S)—N-[[5-Fluoro-6-(cis-4-fluorocyclohexoxy)-2-methoxy-3-pyridyl]methyl]-pyrrolidine-2-carboxamide; Fumaric Acid], the CLint scaled at 0.5 μM in series [1] is less than 5 L/h/kg. In series [2], the half-maximal effective concentration (EC50) was less than 20 nM and the Emax is greater than 70%.

In the case of `COc1nc(O[C@H]2CC[C@H](F)CC2)c(F)cc1CNC(=O)[C@@H]1CCCN1` [Example 31, (2S)—N-[[5-Fluoro-6-(trans-4-fluorocyclohexoxy)-2-methoxy-3-pyridyl]methyl]-pyrrolidine-2-carboxamide; Fumaric Acid], in series [1], the CLint scaled at 0.5 μM was less than 5 L/h/kg. Also, in series [2], the EC50 is less than 20 nM and the Emax was greater than 70%.

For the compound `COc1nc(OC[C@H]2CCC(F)(F)C2)c(F)cc1CNC(=O)[C@@H]1CCCN1` [Example 32, (2S)—N-[[6-[[(1S)-3,3-Difluorocyclopentyl]methoxy]-5-fluoro-2-methoxy-3-pyridyl]methyl]pyrrolidine-2-carboxamide; Fumaric Acid], the CLint scaled at 0.5 μM in series [1] is less than 5 L/h/kg. Moreover, in series [2], the EC50 is less than 20 nM and the maximum response (Emax) lay in the range of 50 to 70%.

Turning to `COc1nc(OC[C@@H]2CCC(F)(F)C2)c(F)cc1CNC(=O)[C@@H]1CCCN1` [Example 33, (2S)—N-[[6-[[(1R)-3,3-Difluorocyclopentyl]methoxy]-5-fluoro-2-methoxy-3-pyridyl]methyl]pyrrolidine-2-carboxamide; Fumaric Acid], the CLint scaled at 0.5 μM in series [1] was less than 5 L/h/kg. Further, in series [2], the half-maximal effective concentration (EC50) is less than 20 nM and the Emax was greater than 70%.

As to `COc1nc(OC2CCC(F)(F)CC2)c(F)cc1CNC(=O)[C@@H]1C[C@@H](F)CN1` [Example 34, (2S,4R)—N-[[6-(4,4-Difluorocyclohexoxy)-5-fluoro-2-methoxy-3-pyridyl]methyl]-4-fluoro-pyrrolidine-2-carboxamide; Fumaric Acid], the CLint scaled at 0.5 μM in series [1] is less than 5 L/h/kg. Further, in series [2], the EC50 was less than 20 nM and the Emax was greater than 70%.

For `COc1nc(OC2CCC(C(F)(F)F)CC2)c(F)cc1CNC(=O)[C@@H]1C[C@@H](F)CN1` (stereo partly drawn) [Example 35, (2S,4R)-4-Fluoro-N-[[5-fluoro-2-methoxy-6-[4-(trifluoromethyl)cyclohexoxy]-3-pyridyl]methyl]pyrrolidine-2-carboxamide; Fumaric Acid], the CLint scaled at 0.5 μM in series [1] is less than 5 L/h/kg. Besides, in series [2], the EC50 was less than 20 nM and the Emax was greater than 70%.

Turning to `COc1nc(OC2CCC(C(F)(F)F)CC2)c(F)cc1CNC(=O)[C@@H]1CCN1` (stereo partly drawn) [Example 36, (2S)—N-[[5-Fluoro-2-methoxy-6-[4-(trifluoromethyl)cyclohexoxy]-3-pyridyl]-methyl]azetidine-2-carboxamide; Succinic Acid], the CLint scaled at 0.5 μM in series [1] lay in the range of 5 to 50 L/h/kg. Besides, in series [2], the 50% effective concentration (EC50) is less than 20 nM and the Emax lay in the range of 50 to 70%.

In the case of `COc1nc(OC2CCC(F)(F)CC2)c(F)cc1CNC(=O)[C@@H]1CCN1` [Example 37, (2S)—N-[[6-(4,4-Difluorocyclohexoxy)-5-fluoro-2-methoxy-3-pyridyl]methyl]-azetidine-2-carboxamide; Succinic Acid], the CLint scaled at 0.5 μM in series [1] is less than 5 L/h/kg. Further, in series [2], the EC50 is less than 20 nM and the Emax lay in the range of 50 to 70%.

Turning to `COc1nc(OC2CCC(C(F)(F)F)CC2)c(F)cc1CNC(=O)[C@@H]1CCN1C` (stereo partly drawn) [Example 38, (2S)—N-[[5-Fluoro-2-methoxy-6-[4-(trifluoromethyl)cyclohexoxy]-3-pyridyl]methyl]-1-methyl-azetidine-2-carboxamide; Succinic Acid], the CLint scaled at 0.5 μM in series [1] is 5 to 50 L/h/kg. For the same compound, in series [2], the EC50 is 20 to 200 nM and the Emax was in the range of 50 to 70%.

`COc1nc(OCCCC(F)(F)F)c(F)cc1CNC(=O)[C@@H]1CCCN1` [Example 40, (2S)—N-[[5-Fluoro-2-methoxy-6-(4,4,4-trifluorobutoxy)-3-pyridyl]methyl]-pyrrolidine-2-carboxamide; Succinic Acid]: the CLint scaled at 0.5 μM in series [1] is less than 5 L/h/kg. In series [2], the EC50 was less than 20 nM and the Emax is greater than 70%.

Take `COc1nc(OCC2CC(F)(F)C2)c(F)cc1CNC(=O)[C@@H]1CCCN1` [Example 42, (2S)—N-[[6-[(3,3-Difluorocyclobutyl)methoxy]-5-fluoro-2-methoxy-3-pyridyl]-methyl]pyrrolidine-2-carboxamide; Succinic Acid]: in series [1], the CLint scaled at 0.5 μM was less than 5 L/h/kg. In addition, in series [2], the EC50 is less than 20 nM and the maximal effect (Emax) is greater than 70%.

For the compound `COc1nc(OC2CCC(F)(F)CC2)c(F)cc1CNC(=O)C(C)N1CCC1` (stereo not drawn) [Example 43, 2-(Azetidin-1-yl)-N-[[6-(4,4-difluorocyclohexoxy)-5-fluoro-2-methoxy-3-pyridyl]-methyl]propanamide; Succinic Acid], the CLint scaled at 0.5 μM in series [1] is less than 5 L/h/kg. Moreover, in series [2], the EC50 lay in the range of 20 to 200 nM and the Emax is greater than 70%.

Turning to `COc1nc(OC2CC(F)(F)C2)c(F)cc1CNC(=O)[C@@H]1CCCN1` [Example 44, (2S)—N-[[6-(3,3-Difluorocyclobutoxy)-5-fluoro-2-methoxy-3-pyridyl]methyl]-pyrrolidine-2-carboxamide; Succinic Acid], the CLint scaled at 0.5 μM in series [1] was less than 5 L/h/kg. Further, in series [2], the EC50 is less than 20 nM and the maximum response (Emax) was greater than 70%.

Consider `COc1nc(OCC(F)(F)C(F)F)c(F)cc1CNC(=O)[C@@H]1CCCN1` [Example 46, (2S)—N-[[5-Fluoro-2-methoxy-6-(2,2,3,3-tetrafluoropropoxy)-3-pyridyl]methyl]-pyrrolidine-2-carboxamide; Succinic Acid], for which, in series [1], the CLint scaled at 0.5 μM was less than 5 L/h/kg. In series [2], the 50% effective concentration (EC50) is less than 20 nM and the Emax was greater than 70%.

In the case of `COc1nc(OCC2CC(F)(F)C2(F)F)c(F)cc1CNC(=O)[C@@H]1CCCN1` (stereo partly drawn) [Example 47, (2S)—N-[[5-Fluoro-2-methoxy-6-[(2,2,3,3-tetrafluorocyclobutyl)methoxy]-3-pyridyl]methyl]pyrrolidine-2-carboxamide; Succinic Acid], in series [1], the CLint scaled at 0.5 μM was less than 5 L/h/kg. Besides, in series [2], the EC50 is less than 20 nM and the maximum response (Emax) was greater than 70%.

As to `COc1nc(OCC2(C(F)(F)F)CC2)c(F)cc1CNC(=O)[C@@H]1CCCN1` [Example 48, (2S)—N-[[5-Fluoro-2-methoxy-6-[[1-(trifluoromethyl)cyclopropyl]methoxy]-3-pyridyl]methyl]pyrrolidine-2-carboxamide; Succinic Acid], the CLint scaled at 0.5 μM in series [1] was less than 5 L/h/kg. In series [2], the EC50 is less than 20 nM and the maximum response (Emax) was greater than 70%.
